Measured values as given in patent publication US20120178666A1 (SHIRE LLC, priority 2009, published 2012).
Each block holds one molecule with its values, some of them ahead of it.

Experiments:
[1] = Prodrug stability in simulated intestinal fluid (USP); details: 37° C.
Protocol: (§1) The remaining concentrations of the prodrugs were then assayed by HPLC.

[2] = Prodrug stability in simulated gastric fluid (USP); details: 37° C.
Protocol: as §1

Compound: O=C(O)CC1N=C(NC(=O)Cc2c(Cl)cccc2Cl)NC1=O (centres unmarked) [Compound 4, Guanfacine fumaryl Cyclic adduct]
% prodrug remaining following incubation for: 2 h in simulated intestinal fluid pH 6.8 [1]: 84%
% prodrug remaining following incubation for: 1 h in simulated gastric fluid pH 1.1 [2]: 97%

Compound: N=C(NC(=O)CC[C@H](NC(=O)[C@@H]1CCC(=O)N1)C(=O)O)NC(=O)Cc1c(Cl)cccc1Cl [Compound 6, (S)-Pyroglutamic acid-(S)-γ-Glutamate (Guanfacine) Amide]
% prodrug remaining following incubation for: 2 h in simulated intestinal fluid pH 6.8 [1]: 98%
% prodrug remaining following incubation for: 1 h in simulated gastric fluid pH 1.1 [2]: 81%

Compound: CNCC(=O)N[C@@H](CCC(=O)NC(=N)NC(=O)Cc1c(Cl)cccc1Cl)C(=O)O [Compound 7, Sarcosine-(S)-γ-Glutamate-Guanfacine Amide]
% prodrug remaining following incubation for: 2 h in simulated intestinal fluid pH 6.8 [1]: 66%
% prodrug remaining following incubation for: 1 h in simulated gastric fluid pH 1.1 [2]: 79%

Compound: N=C(NC(=O)Cc1c(Cl)cccc1Cl)NC(=O)NC(C(=O)O)c1ccccc1 (centres unmarked) [Compound 8, Guanfacine Phenylglycine Urea]
% prodrug remaining following incubation for: 2 h in simulated intestinal fluid pH 6.8 [1]: 100%
% prodrug remaining following incubation for: 1 h in simulated gastric fluid pH 1.1 [2]: 96%

Compound: N=C(NC(=O)CCNC(=O)[C@@H]1CCC(=O)N1)NC(=O)Cc1c(Cl)cccc1Cl [Compound 10, Guanfacine B-Alanine-(S)-Pyroglutamic acid Amide]
% prodrug remaining following incubation for: 1 h in simulated gastric fluid pH 1.1 [2]: 82%

Compound: CN1CC(=O)N=C1NC(=O)Cc1c(Cl)cccc1Cl [Compound 12, Cyclised Guanfacine Sarcosine Amide]
% prodrug remaining following incubation for: 2 h in simulated intestinal fluid pH 6.8 [1]: 87%
% prodrug remaining following incubation for: 1 h in simulated gastric fluid pH 1.1 [2]: 48%

Compound: N=C(NC(=O)Cc1c(Cl)cccc1Cl)NC(=O)Oc1ccc(C[C@H](N)C(=O)O)cc1 [Compound 13, (S)-Tyrosine-(Guanfa ine) Carbamate]
% prodrug remaining following incubation for: 2 h in simulated intestinal fluid pH 6.8 [1]: 81%
% prodrug remaining following incubation for: 1 h in simulated gastric fluid pH 1.1 [2]: 74%

Compound: N=C(NC(=O)Cc1c(Cl)cccc1Cl)NC(=O)O[C@@H]1CN[C@H](C(=O)O)C1 [Compound 14, (S)-4-Hydroxyproline-(Guanfacine) Carbamate]
% prodrug remaining following incubation for: 1 h in simulated gastric fluid pH 1.1 [2]: 70%

Compound: CC(=O)N[C@@H](COC(=O)NC(=N)NC(=O)Cc1c(Cl)cccc1Cl)C(=O)O [Compound 15, Acetyl-(S)-Serine (Guanfacine) Carbamate]
% prodrug remaining following incubation for: 1 h in simulated gastric fluid pH 1.1 [2]: 83%

Compound: N=C(NC(=O)Cc1c(Cl)cccc1Cl)NC(=O)OC[C@H](NC(=O)[C@@H]1CCC(=O)N1)C(=O)O [Compound 16, (S)-Pyroglutamic acid-(S)-Serine(Guanfacine) Carbamate]
% prodrug remaining following incubation for: 2 h in simulated intestinal fluid pH 6.8 [1]: 95%
% prodrug remaining following incubation for: 1 h in simulated gastric fluid pH 1.1 [2]: 78%

Compound: CC(C)[C@@H](N)C(=O)N[C@@H](COC(=O)NC(=N)NC(=O)Cc1c(Cl)cccc1Cl)C(=O)O [Compound 18, (R)-Valine-(S)-Serine(Guanfacine) Carbamate]
% prodrug remaining following incubation for: 1 h in simulated gastric fluid pH 1.1 [2]: 74%

Compound: C[C@@H](OC(=O)NC(=N)NC(=O)Cc1c(Cl)cccc1Cl)[C@H](NC(=O)[C@@H]1CCC(=O)N1)C(=O)O [Compound 19, (S)-Pyroglutamic acid-(S)-Threonine(Guanfacine) Carbamate]
% prodrug remaining following incubation for: 1 h in simulated gastric fluid pH 1.1 [2]: 92%

Compound: CC(C)[C@H](N)C(=O)N[C@H](C(=O)O)[C@@H](C)OC(=O)NC(=N)NC(=O)Cc1c(Cl)cccc1Cl [Compound 20, (S)-Valine-(S)-Threonine(Guanfacine) Carbamate]
% prodrug remaining following incubation for: 2 h in simulated intestinal fluid pH 6.8 [1]: 100%
% prodrug remaining following incubation for: 1 h in simulated gastric fluid pH 1.1 [2]: 79%

Compound: CC(C)[C@@H](N)C(=O)N[C@H](C(=O)O)[C@@H](C)OC(=O)NC(=N)NC(=O)Cc1c(Cl)cccc1Cl [Compound 21, (R)-Valine-(S)-Threonine(Guanfacine) Carbamate]
% prodrug remaining following incubation for: 1 h in simulated gastric fluid pH 1.1 [2]: 83%

Compound: CC(C)[C@@H](N)C(=O)NCCCC(=O)NC(=N)NC(=O)Cc1c(Cl)cccc1Cl [Compound 22, (R)-Valine aminobutanoyl Guanfacine Amide]
% prodrug remaining following incubation for: 2 h in simulated intestinal fluid pH 6.8 [1]: 85%

Compound: N=C(NC(=O)CCCNC(=O)[C@@H]1CCC(=O)N1)NC(=O)Cc1c(Cl)cccc1Cl [Compound 23, Guanfacine (GABA-(S)-Pyroglutamic acid) Amide]
% prodrug remaining following incubation for: 2 h in simulated intestinal fluid pH 6.8 [1]: 78%
% prodrug remaining following incubation for: 1 h in simulated gastric fluid pH 1.1 [2]: 98%

Compound: CC(C)[C@H](N)C(=O)NCCOC(=O)NC(=N)NC(=O)Cc1c(Cl)cccc1Cl [Compound 26, Guanfacine ethanolamine-(S)-Valine Carbamate]
% prodrug remaining following incubation for: 2 h in simulated intestinal fluid pH 6.8 [1]: 91%
% prodrug remaining following incubation for: 1 h in simulated gastric fluid pH 1.1 [2]: 97%

Compound: CC(C)[C@@H](N)C(=O)NCCOC(=O)NC(=N)NC(=O)Cc1c(Cl)cccc1Cl [Compound 27, Guanfacine (ethanolamine-(R)-Valine) Carbamate]
% prodrug remaining following incubation for: 1 h in simulated gastric fluid pH 1.1 [2]: 78%

Compound: CC(C)[C@H](NC(=O)COC(=O)NC(=N)NC(=O)Cc1c(Cl)cccc1Cl)C(=O)O [Compound 29, Guanfacine (glycolyl-(S)-Valine) Carbamate]
% prodrug remaining following incubation for: 2 h in simulated intestinal fluid pH 6.8 [1]: 99%
% prodrug remaining following incubation for: 1 h in simulated gastric fluid pH 1.1 [2]: 80%

Compound: CC(C)[C@@H](NC(=O)COC(=O)NC(=N)NC(=O)Cc1c(Cl)cccc1Cl)C(=O)O [Compound 30, Guanfacine (glycolyl-(R)-Valine) Carbamate]
% prodrug remaining following incubation for: 2 h in simulated intestinal fluid pH 6.8 [1]: 160%
% prodrug remaining following incubation for: 1 h in simulated gastric fluid pH 1.1 [2]: 77%

Compound: CC(C)[C@@H](N)C(=O)N[C@H](CCC(=O)NC(=N)NC(=O)Cc1c(Cl)cccc1Cl)C(=O)O [Compound 31, (R)-Valine-(R)-γ-Glutamate(Guanfacine) Amide]
% prodrug remaining following incubation for: 2 h in simulated intestinal fluid pH 6.8 [1]: 85%
% prodrug remaining following incubation for: 1 h in simulated gastric fluid pH 1.1 [2]: 70%

Compound: CC(C)[C@H](N)C(=O)N[C@H](CCC(=O)NC(=N)NC(=O)Cc1c(Cl)cccc1Cl)C(=O)O [Compound 32, (S)-Valine-(R)-γ-Glutamate (Guanfacine) Amide]
% prodrug remaining following incubation for: 2 h in simulated intestinal fluid pH 6.8 [1]: 84%
% prodrug remaining following incubation for: 1 h in simulated gastric fluid pH 1.1 [2]: 93%

More lines, now with the values ahead:

% prodrug remaining following incubation for: 2 h in simulated intestinal fluid pH 6.8 [1]: 99%
% prodrug remaining following incubation for: 1 h in simulated gastric fluid pH 1.1 [2]: 79%
Compound: CC(C)[C@H](NC(=O)CC(C)(C)CC(=O)NC(=N)NC(=O)Cc1c(Cl)cccc1Cl)C(=O)O [Compound 33, Guanfacine 3,3 dimethylglutaryl (Valine) Amide]

% prodrug remaining following incubation for: 2 h in simulated intestinal fluid pH 6.8 [1]: 91%
% prodrug remaining following incubation for: 1 h in simulated gastric fluid pH 1.1 [2]: 51%
Compound: O=C1CCN=C(NC(=O)Cc2c(Cl)cccc2Cl)N1 [Compound 34, Guanfacine β Alanine Cyclic adduct]

% prodrug remaining following incubation for: 1 h in simulated gastric fluid pH 1.1 [2]: 83%
Compound: CC(C)[C@@H]1N=C(NC(=O)Cc2c(Cl)cccc2Cl)NC1=O [Compound 35, Guanfacine-(S)-Valine Cyclic adduct]

% prodrug remaining following incubation for: 1 h in simulated gastric fluid pH 1.1 [2]: 83%
Compound: NCCCC[C@@H]1N=C(NC(=O)Cc2c(Cl)cccc2Cl)NC1=O [Compound 36, Guanfacine-(S)-Lysine Cyclic adduct]

% prodrug remaining following incubation for: 2 h in simulated intestinal fluid pH 6.8 [1]: 87%
% prodrug remaining following incubation for: 1 h in simulated gastric fluid pH 1.1 [2]: 70%
Compound: NC(=O)CC[C@@H]1N=C(NC(=O)Cc2c(Cl)cccc2Cl)NC1=O [Compound 38, Guanfacine-(S)-Glutamine Cyclic adduct]

% prodrug remaining following incubation for: 1 h in simulated gastric fluid pH 1.1 [2]: 89%
Compound: C[C@@H]1N=C(NC(=O)Cc2c(Cl)cccc2Cl)NC1=O [Compound 39, Guanfacine-(S)-Alanine Cyclic adduct]

% prodrug remaining following incubation for: 2 h in simulated intestinal fluid pH 6.8 [1]: 83%
% prodrug remaining following incubation for: 1 h in simulated gastric fluid pH 1.1 [2]: 70%
Compound: CC(C)C[C@@H](N)C(=O)N[C@@H](CCC(=O)NC(=N)NC(=O)Cc1c(Cl)cccc1Cl)C(=O)O [Compound 42, (R)-Leucine-(S)-γ-Glutamate(Guanfacine) Amide]

% prodrug remaining following incubation for: 2 h in simulated intestinal fluid pH 6.8 [1]: 85%
% prodrug remaining following incubation for: 1 h in simulated gastric fluid pH 1.1 [2]: 62%
Compound: N=C(NC(=O)CC[C@H](NC(=O)[C@H](N)CCCCN)C(=O)O)NC(=O)Cc1c(Cl)cccc1Cl [Compound 43, Guanfacine-(S)-γ-Glutamate-(R)-Lysine Amide]

% prodrug remaining following incubation for: 2 h in simulated intestinal fluid pH 6.8 [1]: 85%
% prodrug remaining following incubation for: 1 h in simulated gastric fluid pH 1.1 [2]: 75%
Compound: CSCC[C@@H](N)C(=O)N[C@@H](CCC(=O)NC(=N)NC(=O)Cc1c(Cl)cccc1Cl)C(=O)O [Compound 44, (R)-Methionine-(S)-γ-Glutamate(Guanfacine) Amide]

% prodrug remaining following incubation for: 2 h in simulated intestinal fluid pH 6.8 [1]: 91%
% prodrug remaining following incubation for: 1 h in simulated gastric fluid pH 1.1 [2]: 74%
Compound: N=C(NC(=O)CC[C@H](NC(=O)[C@H](N)Cc1ccc(O)cc1)C(=O)O)NC(=O)Cc1c(Cl)cccc1Cl [Compound 45, Guanfacine-(S)-γ-Glutamate-(R)-Tyrosine Amide]

% prodrug remaining following incubation for: 1 h in simulated gastric fluid pH 1.1 [2]: 87%
Compound: N=C(NC(=O)Cc1c(Cl)cccc1Cl)NC(=O)OCCNC(=O)CN [Compound 49, Guanfacine (ethanolamine Glycine) Carbamate]

% prodrug remaining following incubation for: 1 h in simulated gastric fluid pH 1.1 [2]: 80%
Compound: C[C@H]1N=C(NC(=O)Cc2c(Cl)cccc2Cl)NC1=O [Compound 51, Guanfacine-(R)-Alanine Cyclic adduct]

% prodrug remaining following incubation for: 2 h in simulated intestinal fluid pH 6.8 [1]: 100%
Compound: N=C(NC(=O)Cc1c(Cl)cccc1Cl)NC(=O)Nc1ccc(C(=O)O)cc1 [Compound 53, Guanfacine PABA Urea]

% prodrug remaining following incubation for: 1 h in simulated gastric fluid pH 1.1 [2]: 70%
Compound: CC(C)[C@H](N)C(=O)NCCCC(=O)NC(=N)NC(=O)Cc1c(Cl)cccc1Cl [Compound 56, Guanfacine (GABA-(S)-Valine) Amide]

% prodrug remaining following incubation for: 1 h in simulated gastric fluid pH 1.1 [2]: 81%
Compound: N=C(NC(=O)CCCNC(=O)CC[C@H](N)C(=O)O)NC(=O)Cc1c(Cl)cccc1Cl [Compound 57, Guanfacine (GABA-(S)-Glutamate) Amide]

% prodrug remaining following incubation for: 1 h in simulated gastric fluid pH 1.1 [2]: 86%
Compound: CNCC(=O)N[C@@H](CCOC(=O)NC(=N)NC(=O)Cc1c(Cl)cccc1Cl)C(=O)O [Compound 66, Sarcosine-(S)-Homoserine (Guanfacine) Carbamate]
